Source: PubChem BioAssay AID248 (DTP/NCI, 2004)
Toxic doses and inconclusive results are not listed. No stated cut-off is given here; in the data, active means T/C of 150% or more; inactive means T/C below 125%.

Test system: L1210 leukemia ip in BDF1 mice, survival T/C
Assay: NCI In Vivo Anticancer Drug Screen. Data for tumor model L1210 Leukemia (intraperitoneal) in B6D2F1 (BDF1) mice
Details: endpoint: mean survival time, higher = longer survival
In short: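 Tumor was transplanted into mice, which were then dosed with test compound or vehicle alone. Survival was recorded for each group, and the treated figure was expressed relative to the control figure.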

[1] = dose: 100.0 mg/kg/injection, schedule: Q01DX001 (ip), vehicle: other
[2] = dose: 200.0 mg/kg/injection, schedule: Q01DX001 (ip), vehicle: other
[3] = dose: 400.0 mg/kg/injection, schedule: Q01DX001 (ip), vehicle: other
[4] = dose: 100.0 mg/kg/injection, schedule: Q01DX001 (ip), vehicle: saline
[5] = dose: 200.0 mg/kg/injection, schedule: Q01DX001 (ip), vehicle: saline
[6] = dose: 400.0 mg/kg/injection, schedule: Q01DX001 (ip), vehicle: saline
[7] = dose: 100.0 mg/kg/injection, schedule: Q01DX001 (ip), vehicle: saline with Tween-80
[8] = dose: 200.0 mg/kg/injection, schedule: Q01DX001 (ip), vehicle: saline with Tween-80
[9] = dose: 100.0 mg/kg/injection, schedule: Q04DX002 (ip), vehicle: Klucel (hydroxypropylcellulose) (HPC)
[10] = dose: 200.0 mg/kg/injection, schedule: Q04DX002 (ip), vehicle: Klucel (hydroxypropylcellulose) (HPC)
[11] = dose: 400.0 mg/kg/injection, schedule: Q04DX002 (ip), vehicle: Klucel (hydroxypropylcellulose) (HPC)
[12] = dose: 100.0 mg/kg/injection, schedule: Q01DX009 (ip), vehicle: saline
[13] = dose: 200.0 mg/kg/injection, schedule: Q01DX009 (ip), vehicle: saline
[14] = dose: 400.0 mg/kg/injection, schedule: Q01DX009 (ip), vehicle: saline
[15] = dose: 50.0 mg/kg/injection, schedule: Q01DX001 (ip), vehicle: saline

Measured: T/C

Cc1ccc(N(CCCl)CCCl)cc1NC(=O)c1ccccc1
inactive: [1] 102 % of control | [2] 102 % of control | [3] 109 % of control

Cc1c(CCC(C)C)oc2cc3oc(CCC(C)C)c(C)c3cc12
inactive: dose: 75.0 mg/kg/injection, schedule: Q01DX001 (ip), vehicle: carboxymethylcellulose (CMC) 96 % of control | dose: 150.0 mg/kg/injection, schedule: Q01DX001 (ip), vehicle: carboxymethylcellulose (CMC) 90 % of control | dose: 300.0 mg/kg/injection, schedule: Q01DX001 (ip), vehicle: carboxymethylcellulose (CMC) 90 % of control

CCOC(=O)/C(O)=C\c1ccc(OC)n[n+]1[O-]
inactive: dose: 35.0 mg/kg/injection, schedule: Q04DX002 (ip), vehicle: Klucel (hydroxypropylcellulose) (HPC) 104 % of control | dose: 70.0 mg/kg/injection, schedule: Q04DX002 (ip), vehicle: Klucel (hydroxypropylcellulose) (HPC) 104 % of control | dose: 140.0 mg/kg/injection, schedule: Q04DX002 (ip), vehicle: Klucel (hydroxypropylcellulose) (HPC) 104 % of control

CN(C)S(=O)(=O)c1ccc(NC(=O)OC(c2ccccc2)c2ccccc2)cc1
inactive: [4] 91 % of control | [5] 102 % of control | [6] 91 % of control

C[C@]12C(=O)OC(=O)[C@H]1[C@H]1CC[C@@H]2C1
inactive: [4] 110 % of control | dose: 100.0 mg/kg/injection, schedule: Q01DX009 (ip), vehicle: acetone 102 % of control | dose: 100.0 mg/kg/injection, schedule: Q04DX003 (ip), vehicle: acetone 104 % of control | [5] 106 % of control | dose: 200.0 mg/kg/injection, schedule: Q01DX009 (ip), vehicle: acetone 89 % of control | dose: 200.0 mg/kg/injection, schedule: Q04DX003 (ip), vehicle: acetone 101 % of control | [6] 111 % of control | dose: 400.0 mg/kg/injection, schedule: Q04DX003 (ip), vehicle: acetone 104 % of control

CC(C)(C)N1CCC1CO (stereo unspecified)
inactive: dose: 75.0 mg/kg/injection, schedule: Q01DX001 (ip), vehicle: saline 106 % of control | dose: 150.0 mg/kg/injection, schedule: Q01DX001 (ip), vehicle: saline 97 % of control

CCCCN=C(NCCCC)Oc1ccccc1
inactive: dose: 26.6 mg/kg/injection, schedule: Q01DX Z (ip), vehicle: methylcellulose (MC) 104 % of control | dose: 40.0 mg/kg/injection, schedule: Q01DX Z (ip), vehicle: methylcellulose (MC) 102 % of control | dose: 60.0 mg/kg/injection, schedule: Q01DX Z (ip), vehicle: methylcellulose (MC) 102 % of control

Cc1nc2c(=O)[nH]c(=O)[nH]c2[nH]c1=O
inactive: dose: 16.0 mg/kg/injection, schedule: Q01DX Z (ip), vehicle: methylcellulose (MC) 89 % of control | dose: 31.0 mg/kg/injection, schedule: Q01DX Z (ip), vehicle: methylcellulose (MC) 95 % of control | dose: 62.0 mg/kg/injection, schedule: Q01DX Z (ip), vehicle: methylcellulose (MC) 93 % of control | [1] 96 % of control | dose: 100.0 mg/kg/injection, schedule: Q04DX003 (ip), vehicle: other 100 % of control | dose: 125.0 mg/kg/injection, schedule: Q01DX Z (ip), vehicle: methylcellulose (MC) 101 % of control | [2] 102 % of control | dose: 200.0 mg/kg/injection, schedule: Q04DX003 (ip), vehicle: other 111 % of control | [3] 102 % of control | dose: 400.0 mg/kg/injection, schedule: Q04DX003 (ip), vehicle: other 107 % of control

O=[N+]([O-])C=C1CCCCC1
inactive: [7] 101 % of control | [8] 109 % of control

C1=NC(c2ccccc2)=CN(C2CCCCCC2)C1(c1ccccc1)C1CCCCCC1 (stereo unspecified)
inactive: dose: 50.0 mg/kg/injection, schedule: Q04DX002 (ip), vehicle: saline 99 % of control | [9] 98 % of control | dose: 100.0 mg/kg/injection, schedule: Q04DX002 (ip), vehicle: saline 101 % of control | [10] 88 % of control | dose: 200.0 mg/kg/injection, schedule: Q04DX002 (ip), vehicle: saline 96 % of control | [11] 95 % of control

CCOC1=C(C)C(=O)C1C (stereo unspecified)
inactive: [12] 111 % of control | [13] 101 % of control | [14] 113 % of control

C1CCC(N2CN(C3CCCCC3)CN(C3CCCCC3)C2)CC1
inactive: [9] 97 % of control | [10] 106 % of control | [11] 115 % of control

COc1cc(C(=O)Nc2ccc(F)cc2)cc(OC)c1OC
inactive: dose: 100.0 mg/kg/injection, schedule: Q01DX009 (ip), vehicle: Klucel (hydroxypropylcellulose) (HPC) 92 % of control | dose: 200.0 mg/kg/injection, schedule: Q01DX009 (ip), vehicle: Klucel (hydroxypropylcellulose) (HPC) 97 % of control | dose: 400.0 mg/kg/injection, schedule: Q01DX009 (ip), vehicle: Klucel (hydroxypropylcellulose) (HPC) 94 % of control

N#CSCc1ccc(CSC#N)c(Cl)c1
inactive: dose: 1.56 mg/kg/injection, schedule: Q01DX009 (ip), vehicle: saline sonified 97 % of control | dose: 1.56 mg/kg/injection, schedule: Q04DX003 (ip), vehicle: saline with Tween-80 101 % of control | dose: 3.13 mg/kg/injection, schedule: Q01DX009 (ip), vehicle: saline sonified 109 % of control | dose: 3.13 mg/kg/injection, schedule: Q04DX003 (ip), vehicle: saline with Tween-80 109 % of control | dose: 6.25 mg/kg/injection, schedule: Q01DX009 (ip), vehicle: saline sonified 111 % of control | dose: 6.25 mg/kg/injection, schedule: Q04DX003 (ip), vehicle: saline with Tween-80 109 % of control

CCCCOc1ccc(C(N)=S)c2ccccc12
inactive: dose: 100.0 mg/kg/injection, schedule: Q01DX001 (ip), vehicle: Klucel (hydroxypropylcellulose) (HPC) 105 % of control | dose: 200.0 mg/kg/injection, schedule: Q01DX001 (ip), vehicle: Klucel (hydroxypropylcellulose) (HPC) 112 % of control | dose: 400.0 mg/kg/injection, schedule: Q01DX001 (ip), vehicle: Klucel (hydroxypropylcellulose) (HPC) 94 % of control

CCCCCC[Si](CCCCCC)CCCCCC
inactive: dose: 75.0 mg/kg/injection, schedule: Q04DX003 (ip), vehicle: saline with Tween-80 93 % of control | [12] 102 % of control | dose: 150.0 mg/kg/injection, schedule: Q04DX003 (ip), vehicle: saline with Tween-80 90 % of control | [13] 105 % of control | dose: 300.0 mg/kg/injection, schedule: Q04DX003 (ip), vehicle: saline with Tween-80 88 % of control | [14] 93 % of control

Cc1nc(N)[nH]c(=O)c1N=Nc1ccc(S(=O)(=O)O)cc1
inactive: [15] 98 % of control | [4] 98 % of control | [5] 104 % of control

CC1CCCCN1C(CC(=O)c1ccccc1)C(=O)c1ccccc1 (stereo unspecified)
inactive: [15] 97 % of control | [4] 95 % of control | [5] 101 % of control | [6] 101 % of control

CCOc1cc(N)nc(N)c1[N+](=O)[O-]
inactive: dose: 100.0 mg/kg/injection, schedule: Q01DX001 (ip), vehicle: carboxymethylcellulose (CMC) 95 % of control | dose: 200.0 mg/kg/injection, schedule: Q01DX001 (ip), vehicle: carboxymethylcellulose (CMC) 87 % of control

FC(F)(F)Cc1cccc(C(F)(F)F)c1
inactive: [7] 113 % of control | [8] 103 % of control | dose: 400.0 mg/kg/injection, schedule: Q01DX001 (ip), vehicle: saline with Tween-80 105 % of control

Cc1ccc(CCCC#N)[nH]1
inactive: dose: 100.0 mg/kg/injection, schedule: Q01DX001 (sc), vehicle: carboxymethylcellulose (CMC) 110 % of control | dose: 200.0 mg/kg/injection, schedule: Q01DX001 (sc), vehicle: carboxymethylcellulose (CMC) 113 % of control
